The values that follow come from US8796230B2, “Ivermectin antagonizes ethanol inhibition in P2X4 receptors” (University of Southern California, priority 2010, dated 2014).

The target in assay [1] is T1, rat P2X4R (Rattus norvegicus, UniProt P51577).
T1 construct: expressed in transfected cells; host or cells: Xenopus laevis oocytes injected with cRNA
T1 sequence (P51577 1-388): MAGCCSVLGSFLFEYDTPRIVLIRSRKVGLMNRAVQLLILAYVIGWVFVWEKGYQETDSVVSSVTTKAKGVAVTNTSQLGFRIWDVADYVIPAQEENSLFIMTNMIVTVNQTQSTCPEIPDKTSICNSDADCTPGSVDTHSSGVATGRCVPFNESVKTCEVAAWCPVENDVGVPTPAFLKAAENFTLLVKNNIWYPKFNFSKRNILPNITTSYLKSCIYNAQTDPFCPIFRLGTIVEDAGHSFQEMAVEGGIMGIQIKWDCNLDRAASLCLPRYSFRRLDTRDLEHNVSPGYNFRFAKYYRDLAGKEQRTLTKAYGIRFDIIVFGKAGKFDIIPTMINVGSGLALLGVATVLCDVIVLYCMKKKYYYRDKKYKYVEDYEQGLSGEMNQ
Briefly: Two-electrode voltage-clamp of ATP EC10-induced currents in WT P2X4Rs expressed in Xenopus oocytes. The assay is classed as cell-based. As for the experimental part: Isolation of Xenopus Laevis oocytes and cRNA injections. Xenopus oocytes were isolated and maintained as described previously^18,19. All procedures for the maintenance of Xenopus Laevis frogs and oocyte isolation were approved by The Institutional Animal Care and Use Committee of the University of Southern California. Stage V and VI oocytes were used for cRNA (0.01-5 ng) injections using Nanoject II Nanoliter injection system (Drummond Scientific, Broomall, Pa.) one day after isolation. Injected oocytes were stored at 16° C. in incubation medium containing (in mM), […], theophylline 0.6, pyruvic acid 2.5, with 1% horse serum and 0.05 mg/ml gentamycin. The oocytes were used in electrophysiological recordings for 3-10 days after cRNA injections.
Site-directed mutagenesis and cRNA synthesis. The cDNA of rat P2X4R (GenBank accession No. X87763) was sub-cloned into pcDNA3 vector (Invitrogen, Carlsbad, Calif.). Mutagenesis was performed to introduce single point mutations using QuickChange IIXL Site-Directed Mutagenesis kit (Stratagene, La Jolla, Calif.). The sequences of mutant constructs were verified using automated DNA sequencing (USC/Norris DNA Core Facility, University of Southern California).
The DNA of WT or mutant receptors was linearized and transcribed using the mMESSAGE mMACHINE kit (Ambion, Austin, Tex.) to result in cRNA, which was stored at −70° C. until injection.
Whole-cell voltage-clamp recordings. Two-electrode voltage-clamp recordings of oocytes were performed using a Warner Instruments Model OC-725C oocyte clamp amplifier (Hamden, Conn.) using procedures published earlier^5,6.
Experimental procedures. To induce currents and test the effects of alcohols and IVM in the present experiments, maximal (100 μM) or submaximal ATP concentrations (EC5-10 furthered referred to as EC10) were used. It has been previously shown that the use of EC10 can maximize the effects of ethanol and minimize receptor desensitization 18,19. The washout time between agonist applications was at least 5-10 min to allow complete re-sensitization of the receptors^18, 19.
Effects of the drugs were tested after a stable response to ATP EC10 was obtained. After a sufficient washout time (5-15 min), the cells were challenged with the same ATP EC10 to ensure an accurate response to the drugs and to asses any change in the baseline level.
IVM and alcohol applications.
Data analysis. Data are obtained from several batches of oocytes of at least 3 different frogs and are expressed as mean±SEM. Ethanol (hexanol) and/or IVM effects are presented as percentage change of peak currents evoked by ATP EC10 alone. Data were fitted to a concentration-response curve by using the following logistic equation: I=Imax*[drug]/([drug]+(EC50)), where I/Imax is the percentage of the maximum obtainable response, EC50 is the concentration producing a half-maximal response. GraphPAD Prism software (San Diego, Calif.) was used for data analysis and curve fitting. Statistical analysis was performed using unpaired t-test with significance set at P<0.05.
For orientation: Two-electrode voltage clamp is typically applied to oocytes expressing channels or transporters.

The test system of assay [2] is male C57BL/6 mice. The conditions noted are these: 10% alcohol, 24 hour access.
The subject of assay [3] is C57BL/6 mice. Briefly: Two-bottle choice ethanol (10E versus water) intake in C57BL/6 mice.
Experimental: Based on the initial experiments, a second study was conducted using a similar research design strategy with the following changes. Using a within subjects design, alcohol drinking was allowed to stabilize (based on DOSE approximately 10 g/kg) with a new set of C57Bl mice (n=15). […] On intervening days, the mice were injected with saline. After 3 days of saline injections (allowing for alcohol drinking to restabilize back to ‘baseline’ levels), the mice were injected with a single, higher dose of IVM (5.0 mg/kg). Once again drinking was allowed to re-established back to baseline.

Read-outs that look alike come from different tables or passages of the source.

With `CC[C@H](C)[C@H]1O[C@]2(CC[C@@H]1C)C[C@@H]1C[C@@H](C/C=C(\C)[C@@H](O[C@H]3C[C@H](OC)[C@@H](O[C@H]4C[C@H](OC)[C@@H](O)[C@H](C)O4)[C@H](C)O3)[C@@H](C)/C=C/C=C3\CO[C@@H]4[C@H](O)C(C)=C[C@@H](C(=O)O1)[C@]34O)O2` [IVM, 5-O demethyl-22,23-dihydroavermectin A1a], the “antagonism of the inhibitory effect of ethanol on ATP-activated currents” value in assay [1] (0.5 μM IVM co-applied with 25 mM ethanol) is given as “completely antagonized”. In addition, the “potentiation of ATP-gated currents in P2X4Rs” value in assay [1] (0.5 μM IVM, delivered separately, ATP EC10) is 31±4.9%. Moreover, the “antagonism of the inhibitory effects of ethanol” value in assay [1] (IVM 0.5 μM, 200 mM ethanol) was “did not significantly alter”; in assay [1] (IVM 0.5 μM, 50 and 100 mM ethanol) it was “completely antagonized”; in assay [1] (IVM 1.0 and 3.0 μM, all ethanol concentrations (50-200 mM)), “completely antagonizing”. The “effect on ATP-induced currents in P2X4R” value in assay [1] (IVM 3 μM applied individually) is recorded as “significantly potentiated”. The “net result of exposure to both IVM and hexanol versus additive effects” value in assay [1] (IVM 3 μM with hexanol 10 mM) was “significantly less”. Also, the “combined action of IVM and ethanol versus estimated additive values of the individual effects” value in assay [1] (IVM 0.5, 1 and 3 μM with ethanol 50, 100, 200 mM) was “significantly lower”. For the same compound, the “effect on EC10 ATP-gated currents in P2X4Rs” value in assay [1] (IVM co-applied with ATP, concentration-dependent and reversible) is recorded as “significantly potentiated”. Besides, the “decrease in alcohol consumption” value stood at 32% in assay [2] (IVM 2.5 mg/kg) and 50% in assay [2] (IVM 10 mg/kg). Further, in assay [3] (IVM 10 mg/kg intraperitoneally), the average water consumption result is reported as “significant increase”. In addition, the ethanol intake entry in assay [3] (IVM 10 mg/kg intraperitoneally) is given as “non-significant reduction”. Further, the “daily 10E preference” value in assay [3] (IVM 10 mg/kg intraperitoneally prior to each day of access, 4 days, versus saline) is listed as “strong trend”. Moreover, in assay [3] (IVM 10 mg/kg intraperitoneally, day 3), the “10E preference on day 3” value is “significantly lower”. The ethanol consumption result in assay [3] (single injection of IVM 2.5 mg/kg and 5.0 mg/kg, within subjects design, versus baseline with saline) is “significantly reduced”.
